Target: T1, Caspase-7 (Homo sapiens, UniProt P55210)
T1 sequence (P55210 whole entry): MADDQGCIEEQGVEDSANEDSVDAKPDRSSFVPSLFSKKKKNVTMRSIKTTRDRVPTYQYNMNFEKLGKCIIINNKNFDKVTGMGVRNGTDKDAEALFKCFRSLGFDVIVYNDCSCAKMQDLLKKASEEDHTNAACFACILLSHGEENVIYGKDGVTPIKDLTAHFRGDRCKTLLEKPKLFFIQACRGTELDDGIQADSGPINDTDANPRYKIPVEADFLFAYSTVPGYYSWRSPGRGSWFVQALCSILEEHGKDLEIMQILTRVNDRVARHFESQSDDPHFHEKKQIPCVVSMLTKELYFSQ
Experiment: potency of procaspase-7 enzyme activation – biochemical, absorbance, human, dual procaspase-3/-7 activator project, dose response (AID 504330)

Row | SMILES | EC50 [µM]
1 | COc1ccccc1-n1c(O)c2n(-c3ccccc3)[nH]c(C(=O)c3ccccc3)c-2c1=O | > 85.3
2 | COC(=O)c1[nH]n(-c2ccc(Cl)cc2)c2c(O)n(-c3ccccc3OC)c(=O)c1-2 [1-(4-Chloro-phenyl)-5-(2-methoxy-phenyl)-4,6-dioxo-1,3a,4,5,6,6a-hexahydro-pyrrolo[3,4-c]pyrazole-3-carboxylic acid methyl ester] | > 85.3
3 | O=C(c1ccccc1)c1[nH]n(-c2ccccc2)c2c(O)n(-c3ccccc3)c(=O)c1-2 [3-benzoyl-1,5-diphenyl-3a,6a-dihydropyrrolo[3,4-c]pyrazole-4,6-dione] | > 85.3
4 | CCOC(=O)C(C#N)C=Nc1cc(OC)ccc1OC (configuration not stated) [(E)-2-Cyano-3-(2,5-dimethoxy-phenylamino)-acrylic acid ethyl ester] | > 85.3
5 | C=CC=Nc1c(Cl)c(O)n(-c2cccc(Cl)c2Cl)c1O [MLS000533809] | > 85.3
6 | Cc1[nH]nc2c1C(c1c[nH]c3ccccc13)C(C#N)C(=N)O2 (configuration not stated) [MLS001030009] | 27.8
7 | CCOc1ccc(NC=C2C(=O)CC(c3ccco3)CC2=O)cc1 (configuration not stated) [SMR000268302] | > 85.3
